This is an account of results in US10251874B2, “Crystalline forms of a JAK inhibitor compound” (THERAVANCE BIOPHARMA R&D IP, LLC, priority 2017, dated 2019).

Assay [1] relates to IL-13 induced STAT6 phosphorylation in BEAS-2B human lung epithelial cells. Nature of the assay: Assay 2: Cellular JAK potency assay: inhibition of IL-13 (AlphaScreen). Format: cell-based. The settings on record: BEAS-2B cells, read-out: pIC50, inhibition of IL-13 induced STAT6 phosphorylation (converted). How it is done: The AlphaScreen JAM cellular potency assay was carried out by measuring interleukin-13 (IL-13, R&D Systems) induced STAT6 phosphorylation in BEAS-2B human lung epithelial cells (ATCC). The anti-STAT6 antibody (Cell Signaling Technologies) was conjugated to AlphaScreen acceptor beads (Perkin Elmer), while the anti-pSTAT6 (pTyr641) antibody (Cell Signaling Technologies) was biotinylated using EZ-Link Sulfo-NHS-Biotin (Thermo Scientific).
BEAS-2B cells were grown at 37° C. in a 5% CO2 humidified incubator in 50% DMEM/50% F-12 medium (Life Technologies) supplemented with 10% FBS (Hyclone), 100 U/mL penicillin, 100 μg/mL streptomycin (Life Technologies), and 2 mM
GlutaMAX (Life Technologies). On day 1 of the assay, cells were seeded at a 7,500 cells/well density in white poly-D-lysine-coated 384-well plates (Corning) with 25 μL medium, and were allowed to adhere overnight in the incubator. […] After a minimum of 2 h incubation, the assay plates were read on the EnVision plate reader. AlphaScreen luminescence signals were recorded and utilized to calculate the percent inhibition values based on DMSO and background controls.
For dose-response analysis, percent inhibition data were plotted vs. compound concentrations, and IC50 values were determined from a 4-parameter robust fit model with the Prism software. Results may also be expressed as the negative logarithm of the IC50 value, pIC50.

Assay [2] addresses T1, JAK3 (Homo sapiens, UniProt P52333).
T1 construct: GST; purchased Life Technologies
T1 sequence (P52333 1-1124): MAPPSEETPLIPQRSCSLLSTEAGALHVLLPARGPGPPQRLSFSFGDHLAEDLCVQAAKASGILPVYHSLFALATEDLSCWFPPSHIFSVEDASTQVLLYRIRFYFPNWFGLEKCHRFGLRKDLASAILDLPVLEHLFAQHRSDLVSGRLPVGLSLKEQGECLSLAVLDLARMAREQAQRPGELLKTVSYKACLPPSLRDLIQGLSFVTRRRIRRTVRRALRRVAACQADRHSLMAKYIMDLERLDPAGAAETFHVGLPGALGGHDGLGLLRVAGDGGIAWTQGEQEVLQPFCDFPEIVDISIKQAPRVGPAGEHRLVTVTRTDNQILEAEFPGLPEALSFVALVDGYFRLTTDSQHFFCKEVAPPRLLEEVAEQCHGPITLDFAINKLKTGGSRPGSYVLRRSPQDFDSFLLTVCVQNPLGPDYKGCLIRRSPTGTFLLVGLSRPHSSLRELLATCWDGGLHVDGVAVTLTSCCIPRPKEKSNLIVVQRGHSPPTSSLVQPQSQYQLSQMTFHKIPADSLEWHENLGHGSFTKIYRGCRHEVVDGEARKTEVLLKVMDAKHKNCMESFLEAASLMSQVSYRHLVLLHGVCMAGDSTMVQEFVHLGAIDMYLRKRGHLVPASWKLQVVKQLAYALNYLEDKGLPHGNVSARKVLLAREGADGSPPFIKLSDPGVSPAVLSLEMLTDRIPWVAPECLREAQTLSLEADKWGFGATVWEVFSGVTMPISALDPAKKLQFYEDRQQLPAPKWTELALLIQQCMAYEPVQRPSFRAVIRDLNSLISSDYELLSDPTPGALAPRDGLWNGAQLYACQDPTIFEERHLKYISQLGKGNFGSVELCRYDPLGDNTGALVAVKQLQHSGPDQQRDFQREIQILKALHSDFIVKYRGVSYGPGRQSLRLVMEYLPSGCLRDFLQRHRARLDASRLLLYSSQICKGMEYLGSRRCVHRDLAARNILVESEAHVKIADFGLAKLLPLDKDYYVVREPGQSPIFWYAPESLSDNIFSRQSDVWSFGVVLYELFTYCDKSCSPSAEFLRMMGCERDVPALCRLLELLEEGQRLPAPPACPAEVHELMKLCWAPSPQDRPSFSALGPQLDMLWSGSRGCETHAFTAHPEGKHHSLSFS
Description: Assay 1: LanthaScreen biochemical JAK kinase assay, JAK3. The settings on record: converted from pIC50 by Cheng-Prusoff; ATP at Km 1.6 μM; read-out: JAK 3 pKi (converted). How it is done:
A panel of four LanthaScreen JAK biochemical assays (JAK1, 2, 3 and Tyk2) were carried in a common kinase reaction buffer (50 mM HEPES, pH 7.5, 0.01% Brij-35, 10 mM MgCl2, and 1 mM EGTA). Recombinant GST-tagged JAK enzymes and a GFP-tagged STAT1 peptide substrate were obtained from Life Technologies.
ATP was subsequently added to initiate the kinase reactions in 10 μL total volume, with 1% DMSO. […] Kinase reactions were allowed to proceed for 1 hour at ambient temperature before a 10 μL preparation of EDTA (10 mM final concentration) and Tb-anti-pSTAT1 (pTyr701) antibody (Life Technologies, 2 nM final concentration) in TR-FRET dilution buffer (Life Technologies) was added. […] Emission ratio signals (520 nm/495 nm) were recorded and utilized to calculate the percent inhibition values based on DMSO and background controls.
For dose-response analysis, percent inhibition data were plotted vs. compound concentrations, and IC50 values were determined from a 4-parameter robust fit model with the Prism software (GraphPad Software).
For orientation: In TR-FRET formats the signal depends on donor and acceptor labels being close together.

The structures appear in SMILES notation.

Turning to `CCc1cc(O)c(F)cc1-c1ccc2c(-c3nc4c([nH]3)CCN(C3CCN(C)CC3)C4)n[nH]c2c1` [Compound 1, 5-ethyl-2-fluoro-4-(3-(5-(1-methylpiperidin-4-yl)-4,5,6,7-tetrahydro-1H-imidazo[4,5-c]pyridin-2-yl)-1H-indazol-6-yl)phenol], in assay [1], the IC50 is 6.31 nM. Further, the Ki in assay [2] is 0.2 nM.
